Assays:
KDM2B (FBXL10) = target: T1, KDM2B (FBXL10) (Homo sapiens, UniProt Q8NHM5); experiment: Histone lysine demethylase AlphaLISA assay, KDM2B; type: biochemical; settings: read-out: KDM2B HDME Inhibition IC50
T1 sequence (Q8NHM5 1-650): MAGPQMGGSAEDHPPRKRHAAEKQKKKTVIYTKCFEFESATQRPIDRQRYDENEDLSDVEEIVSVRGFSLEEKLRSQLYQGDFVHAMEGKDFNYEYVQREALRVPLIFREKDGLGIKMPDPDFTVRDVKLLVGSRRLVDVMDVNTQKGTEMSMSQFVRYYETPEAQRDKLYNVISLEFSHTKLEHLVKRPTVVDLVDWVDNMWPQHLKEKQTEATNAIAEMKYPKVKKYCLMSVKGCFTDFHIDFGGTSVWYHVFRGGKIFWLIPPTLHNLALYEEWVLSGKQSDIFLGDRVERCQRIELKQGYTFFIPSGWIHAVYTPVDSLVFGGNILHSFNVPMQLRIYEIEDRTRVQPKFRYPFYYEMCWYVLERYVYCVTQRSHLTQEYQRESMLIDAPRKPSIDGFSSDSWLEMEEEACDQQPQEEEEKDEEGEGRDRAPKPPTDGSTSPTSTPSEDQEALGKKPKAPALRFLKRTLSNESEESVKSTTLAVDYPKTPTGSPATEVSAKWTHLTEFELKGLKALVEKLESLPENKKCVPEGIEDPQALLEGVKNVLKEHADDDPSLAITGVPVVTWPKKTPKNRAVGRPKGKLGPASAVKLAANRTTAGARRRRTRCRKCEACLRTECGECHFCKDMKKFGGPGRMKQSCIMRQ
How it was run: (§1)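 Enzyme 10 min pre-incubation; + compound (3% DMSO soln) 10 min; + biotin-H3 methyl-Lys peptide, 25 μM L-Asc, 10 μM α-KG, RT. Read: AlphaLISA acceptor beads, then streptavidin donor beads, RT, dark.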

KDM4B (JMJD2B) = target: T2, KDM4B (JMJD2B) (Homo sapiens, UniProt O94953); experiment: Histone lysine demethylase AlphaLISA assay, KDM4B; type: biochemical; settings: read-out: KDM4B HDME Inhibition IC50
T2 construct: 2-500; purchased BPS; host or cells: Bac (baculovirus system)
T2 sequence (O94953 2-500): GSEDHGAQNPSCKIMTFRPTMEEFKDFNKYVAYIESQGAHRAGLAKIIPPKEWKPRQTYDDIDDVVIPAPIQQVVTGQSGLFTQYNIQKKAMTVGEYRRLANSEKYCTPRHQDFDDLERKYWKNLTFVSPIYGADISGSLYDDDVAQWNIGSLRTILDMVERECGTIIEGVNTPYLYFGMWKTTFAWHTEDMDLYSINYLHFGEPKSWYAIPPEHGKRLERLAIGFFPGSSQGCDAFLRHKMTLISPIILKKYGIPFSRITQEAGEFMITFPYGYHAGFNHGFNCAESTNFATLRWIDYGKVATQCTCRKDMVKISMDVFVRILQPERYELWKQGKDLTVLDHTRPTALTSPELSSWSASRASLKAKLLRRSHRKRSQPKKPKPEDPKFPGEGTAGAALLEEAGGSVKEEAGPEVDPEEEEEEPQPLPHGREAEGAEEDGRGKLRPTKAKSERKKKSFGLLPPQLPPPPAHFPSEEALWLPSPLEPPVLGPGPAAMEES
How it was run: as §1

KDM5B (PLU-1) = target: T3, KDM5B (PLU-1) (Homo sapiens, UniProt Q9UGL1); experiment: Histone lysine demethylase AlphaLISA assay, KDM5B; type: biochemical; settings: read-out: KDM5B HDME Inhibition IC50
T3 sequence (Q9UGL1 1-809): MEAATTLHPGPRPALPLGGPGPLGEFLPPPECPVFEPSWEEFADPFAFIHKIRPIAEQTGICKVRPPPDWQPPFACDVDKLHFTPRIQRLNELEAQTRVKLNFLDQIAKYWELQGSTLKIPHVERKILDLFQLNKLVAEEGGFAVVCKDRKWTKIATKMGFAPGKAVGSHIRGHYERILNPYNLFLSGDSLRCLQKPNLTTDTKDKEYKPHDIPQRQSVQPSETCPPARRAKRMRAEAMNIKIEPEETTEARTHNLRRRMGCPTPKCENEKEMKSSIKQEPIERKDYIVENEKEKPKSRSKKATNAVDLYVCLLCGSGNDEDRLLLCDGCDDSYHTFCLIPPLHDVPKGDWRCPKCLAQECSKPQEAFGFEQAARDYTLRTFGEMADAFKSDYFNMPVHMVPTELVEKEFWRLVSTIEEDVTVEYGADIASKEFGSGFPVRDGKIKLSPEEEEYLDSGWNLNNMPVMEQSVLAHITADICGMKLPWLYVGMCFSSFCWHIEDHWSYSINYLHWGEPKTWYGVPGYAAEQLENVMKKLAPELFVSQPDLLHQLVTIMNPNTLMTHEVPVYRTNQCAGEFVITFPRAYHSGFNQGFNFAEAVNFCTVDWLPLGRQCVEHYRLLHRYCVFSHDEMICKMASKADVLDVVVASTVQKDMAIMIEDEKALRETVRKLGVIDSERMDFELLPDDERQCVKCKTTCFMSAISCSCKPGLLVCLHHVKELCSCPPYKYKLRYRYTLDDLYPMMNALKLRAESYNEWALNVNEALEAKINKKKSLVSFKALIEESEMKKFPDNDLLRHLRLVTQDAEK
How it was run: as §1

MCF7 cells = experiment: Cell proliferation assay MCF7; type: cell-based; settings: MCF7 human breast cancer cells; 120 hours; ATPlite 1 Step
How it was run: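 Cells grown 24 h in DMEM GlutaMAX/10% FBS, then exposed to compounds in duplicate (≤0.5% DMSO) for 120 h. Viability read as ATP luminescence (ATPlite 1 Step). Seeding set to reach ~90% confluence at harvest.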

| SMILES | IC50 (KDM2B (FBXL10)) | IC50 (KDM4B (JMJD2B)) | IC50 (KDM5B (PLU-1)) | EC50 (MCF7 cells) |
| --- | --- | --- | --- | --- |
| C(=N\C1CC1)/c1ccnc(CNCCCCN2CCC2)c1 [Compound 44, N-{[2-({[4-(azetidin-1-yl)butyl]amino}methyl)-pyridin-4-yl]methylidene}-cyclopropanamine] | > 2.5 µM | > 2.5 µM | < 0.25 µM | < 0.25 µM |
| CN(C)CC1CCC(CNCc2cc(/C=N/C3CC3)ccn2)CC1 (stereo not drawn) [Compound 46, N-[(2-{[({4-[(dimethylamino)-methyl]cyclohexyl}-methyl)amino]-methyl}pyridin-4-yl)methylidene]-cyclopropanamine] | > 2.5 µM | 0.25 to 2.5 µM | 0.25 to 2.5 µM | < 0.25 µM |
| CCCCCCCC/N=C/c1ccnc(CNCC(=O)N(CC)CC)c1 [Compound 58, N,N-diethyl-2-[({4-[(octylimino)methyl]-pyridin-2-yl}methyl)amino]-acetamide] | 0.25 to 2.5 µM | > 2.5 µM | < 0.25 µM | > 2.5 µM |
| CCN(CC)CCCCNCc1cc(/C=N/CCO)ccn1 [Compound 61, 2-[{[2-({[4-(diethylamino)-butyl]amino}-methyl)pyridin-4-yl]methylidene}-amino]ethan-1-ol] | > 2.5 µM | < 0.25 µM | < 0.25 µM | < 0.25 µM |
| CCN(CC)CCCCNCc1cc(/C=N/CC(F)(F)C(F)(F)F)ccn1 [Compound 62, {[2-({[4-(diethylamino)-butyl]amino}methyl)pyridin-4-yl]methylidene} (2,2,3,3,3-pentafluoropropyl)-amine] | > 2.5 µM | 0.25 to 2.5 µM | < 0.25 µM | < 0.25 µM |
| CCN(CCN(C)C)C(=O)CNCc1cc(/C=N/CCC2CCCCC2)ccn1 [Compound 63, 2-[({4-[[(2-cydohexylethyl)-imino]methyl]pyridin-2-yl}methyl)amino]-N-[2-(dimethylamino)-ethyl]-N-ethylacetamide] | 0.25 to 2.5 µM | 0.25 to 2.5 µM | < 0.25 µM | < 0.25 µM |
| CON=Cc1ccnc(CNCCCN(C)C)c1 [Compound 64, [3-(dimethylamino)-propyl]({4-[(methoxyimino)-methyl]pyridin-2-yl}methyl)amine] | > 2.5 µM | < 0.25 µM | < 0.25 µM | > 2.5 µM |
| CCN(CC)CCCCNCc1cc(C2NCCN2C)ccn1 (stereo not drawn) [Compound 65, [4-(diethylamino)-butyl]({[4-(1-methylimidazolidin-2-yl)pyridin-2-yl]methyl})amine] | > 2.5 µM | > 2.5 µM | < 0.25 µM | < 0.25 µM |
| CCN(CCN(C)C)C(=O)CNCc1cc(/C=N/CCO)ccn1 [Compound 66] | > 2.5 µM | < 0.25 µM | < 0.25 µM | < 0.25 µM |
| CN(C)C/C=C/CNCc1cc(C=O)ccn1 [Compound 98, 2-({[(2E)-4-(dimethylamino)but-2-en-1-yl]amino}-methyl)pyridine-4-carbaldehyde] | > 2.5 µM | > 2.5 µM | < 0.25 µM | < 0.25 µM |
| O=Cc1ccnc(CNCC(=O)N2CCC[C@@H]2CN2CCCC2)c1 [Compound 102, 2-[({2-oxo-2-[(2R)-2-(pyrrolidin-1-ylmethyl)pyrrolidin-1-yl]ethyl}amino)-methyl]pyridine-4-carbaldehyde] | > 2.5 µM | 0.25 to 2.5 µM | < 0.25 µM | 0.25 to 2.5 µM |
| CCN(CC)CCCCNCc1cc(C=O)ccn1 [Compound 107, 2-({[4-(diethylamino)-butyl]amino}-methyl)pyridine-4-carbaldehyde] | > 2.5 µM | < 0.25 µM | < 0.25 µM | < 0.25 µM |

More lines, now with the values ahead:

| IC50 (KDM2B (FBXL10)) | IC50 (KDM4B (JMJD2B)) | IC50 (KDM5B (PLU-1)) | EC50 (MCF7 cells) | SMILES |
| --- | --- | --- | --- | --- |
| > 2.5 µM | < 0.25 µM | < 0.25 µM | < 0.25 µM | CN(C)C/C=C/CNCc1cc(/C=N/C2CC2)ccn1 [Compound 43, N-{[2-({[(2E)-4-(dimethylamino)but-2-en-1-yl]amino}-methyl)pyridin-4-yl]methylidene}-cyclopropanamine] |
| 0.25 to 2.5 µM | < 0.25 µM | < 0.25 µM | > 2.5 µM | CCN(CC)C(=O)CNCc1cc(/C=N/CCC2CCCCC2)ccn1 [Compound 57, 2-[({4-[[(2-cyclohexylethyl)imino]-methyl]pyridin-2-yl}methyl)amino]-N,N-diethylacetamide] |
| > 2.5 µM | < 0.25 µM | < 0.25 µM | < 0.25 µM | CCN(CC)CCCCNCc1cc(/C=N/CCOC)ccn1 [Compound 60, [4-(diethylamino)butyl]-({4-[[(2-methoxyethyl)imino]-methyl]pyridin-2-yl}methyl)amine] |
| > 2.5 µM | > 2.5 µM | < 0.25 µM | < 0.25 µM | CCN(CC)CCCCNCc1cc(/C=N\CCC2CCCCC2)ccn1 [Compound 67, (2-cyclohexylethyl)-({[2-({[4-(diethylamino)-butyl]amino}methyl)pyridin-4-yl]methylidene})-amine] |
| > 2.5 µM | < 0.25 µM | < 0.25 µM | < 0.25 µM | CCN(CCN(C)C)C(=O)CNCc1cc(C=O)ccn1 [Compound 101] |
| > 2.5 µM | 0.25 to 2.5 µM | < 0.25 µM | < 0.25 µM | O=Cc1ccnc(CNCCCN2CCCC2)c1 [Compound 111, 2-({[3-(pyrrolidin-1-yl)propyl]amino}-methyl)pyridine-4-carbaldehyde] |
